Reference: PubChem BioAssay AID1259407 (Chemical Carcinogenesis Research Information System (CCRIS), 2018)
The source made the active and inactive calls. How the calls were made is not given here.

System: CCRIS mutagenicity, Ames/micronucleus/aberration tests
Assay: CCRIS mutagenicity studies
[1] = Test System: AMES SALMONELLA TYPHIMURIUM, Strain/Indicator: TA98, Metabolic Activation: NONE, Method: PREINCUBATION
[2] = Test System: AMES SALMONELLA TYPHIMURIUM, Strain/Indicator: TA98, Metabolic Activation: RAT, LIVER, S-9, AROCLOR 1254 (10%), Method: PREINCUBATION
[3] = Test System: AMES SALMONELLA TYPHIMURIUM, Strain/Indicator: TA100, Metabolic Activation: NONE, Method: PREINCUBATION
[4] = Test System: AMES SALMONELLA TYPHIMURIUM, Strain/Indicator: TA100, Metabolic Activation: RAT, LIVER, S-9, AROCLOR 1254 (10%), Method: PREINCUBATION

For `Cc1ccccc1N=Nc1ccc(N(C)C)cc1`, the mutagenic call (Test System: AMES SALMONELLA TYPHIMURIUM, Strain/Indicator: TA98, Metabolic Activation: HAMSTER, LIVER, S-9, AROCLOR 1254 (10%), Method: PREINCUBATION) was “inactive; negative”, the mutagenic call [1] was “inactive; negative” and the mutagenic call [2] was “inactive; negative”. For the same compound, the mutagenic call (Test System: AMES SALMONELLA TYPHIMURIUM, Strain/Indicator: TA100, Metabolic Activation: HAMSTER, LIVER, S-9, AROCLOR 1254 (10%), Method: PREINCUBATION) was “inactive; negative”, the mutagenic call [3] was “inactive; negative” and the mutagenic call [4] was “inactive; negative”. The mutagenic call (Test System: AMES SALMONELLA TYPHIMURIUM, Strain/Indicator: TA1535, Metabolic Activation: HAMSTER, LIVER, S-9, AROCLOR 1254 (10%), Method: PREINCUBATION) was “inactive; negative”, the mutagenic call (Test System: AMES SALMONELLA TYPHIMURIUM, Strain/Indicator: TA1535, Metabolic Activation: NONE, Method: PREINCUBATION) was “inactive; negative” and the mutagenic call (Test System: AMES SALMONELLA TYPHIMURIUM, Strain/Indicator: TA1535, Metabolic Activation: RAT, LIVER, S-9, AROCLOR 1254 (10%), Method: PREINCUBATION) was “inactive; negative”. For the same compound, the mutagenic call (Test System: AMES SALMONELLA TYPHIMURIUM, Strain/Indicator: TA1537, Metabolic Activation: HAMSTER, LIVER, S-9, AROCLOR 1254 (10%), Method: PREINCUBATION) was “inactive; negative”, the mutagenic call (Test System: AMES SALMONELLA TYPHIMURIUM, Strain/Indicator: TA1537, Metabolic Activation: NONE, Method: PREINCUBATION) was “inactive; negative” and the mutagenic call (Test System: AMES SALMONELLA TYPHIMURIUM, Strain/Indicator: TA1537, Metabolic Activation: RAT, LIVER, S-9, AROCLOR 1254 (10%), Method: PREINCUBATION) was “inactive; negative”. The mutagenic call (Test System: E. COLI, Strain/Indicator: WP2 UVRA, Metabolic Activation: HAMSTER, LIVER, S-9, AROCLOR 1254, Method: STANDARD PLATE) was “inactive; negative”, the mutagenic call (Test System: E. COLI, Strain/Indicator: WP2 UVRA, Metabolic Activation: HAMSTER, LIVER, S-9, Method: STANDARD PLATE) was “inactive; negative” and the mutagenic call (Test System: E. COLI, Strain/Indicator: WP2 UVRA, Metabolic Activation: MOUSE, LIVER, S-9, AROCLOR 1254, Method: STANDARD PLATE) was “inactive; negative”. For the same compound, the mutagenic call (Test System: E. COLI, Strain/Indicator: WP2 UVRA, Metabolic Activation: MOUSE, LIVER, S-9, Method: STANDARD PLATE) was “inactive; negative”, the mutagenic call (Test System: E. COLI, Strain/Indicator: WP2 UVRA, Metabolic Activation: NONE, Method: STANDARD PLATE) was “inactive; negative” and the mutagenic call (Test System: E. COLI, Strain/Indicator: WP2 UVRA, Metabolic Activation: RAT, LIVER, S-9, AROCLOR 1254, Method: STANDARD PLATE) was “inactive; negative”. For the same compound, the mutagenic call (Test System: E. COLI, Strain/Indicator: WP2 UVRA, Metabolic Activation: RAT, LIVER, S-9, Method: STANDARD PLATE) was “inactive; negative”.

For `II`, the mutagenic call (End Point: IN VITRO CHROMOSOMAL ABERRATIONS, Test System: SYRIAN HAMSTER EMBRYO (SHE) CELLS, Metabolic Activation: NONE) was “active; positive (structural changes)”.

With `O=c1c2[nH]c3ccccc3c2nnn1/N=C/c1ccc([N+](=O)[O-])cc1` the mutagenic call (Test System: AMES SALMONELLA TYPHIMURIUM, Strain/Indicator: TA97, Metabolic Activation: NONE, Method: PREINCUBATION) was “active; positive”, the mutagenic call (Test System: AMES SALMONELLA TYPHIMURIUM, Strain/Indicator: TA97, Metabolic Activation: RAT, LIVER, S-9, AROCLOR 1254 (10%), Method: PREINCUBATION) was “active; positive” and the mutagenic call [1] was “active; positive”. For the same compound, the mutagenic call [2] was “active; positive”, the mutagenic call [3] was “active; positive” and the mutagenic call [4] was “active; positive”. The mutagenic call (Test System: AMES SALMONELLA TYPHIMURIUM, Strain/Indicator: TA102, Metabolic Activation: NONE, Method: PREINCUBATION) was “inactive; negative” and the mutagenic call (Test System: AMES SALMONELLA TYPHIMURIUM, Strain/Indicator: TA102, Metabolic Activation: RAT, LIVER, S-9, AROCLOR 1254 (10%), Method: PREINCUBATION) was “inactive; negative”.

With `O=S(=O)(O)c1ccc(N=Nc2cc(S(=O)(=O)O)c3ccccc3c2O)c2ccccc12` the mutagenic call (End Point: IN VITRO CHROMOSOMAL ABERRATIONS, Test System: CHO CELLS, Metabolic Activation: NONE) was “inactive; negative”, the mutagenic call (End Point: IN VITRO CHROMOSOMAL ABERRATIONS, Test System: CHO CELLS, Metabolic Activation: RAT, LIVER, S-9, AROCLOR 1254) was “inactive; negative” and the mutagenic call (Test System: Mouse lymphoma, Strain/Indicator: L5178Y (tk+/tk-), Metabolic Activation: None, Method: Suspension/plate) was “inactive; negative”. The mutagenic call (Test System: Mouse lymphoma, Strain/Indicator: L5178Y (tk+/tk-), Metabolic Activation: Rat, Liver, S-9, Aroclor 1254, Method: Suspension/plate) was “inactive; negative”.
